ChEMBL document CHEMBL3046133, “Susceptibility of field populations of Spodoptera litura (Fabricius) (Lepidoptera: Noctuidae) in China to chlorantraniliprole and the activities of detoxification enzymes” (2012)

Assays:
Type in all cases: functional
[1] = system: Spodoptera litura; assay: Resistance factor, ratio of LC50 for third to fifth-instar larval stage of Spodoptera litura field strain NJ09 to LC50 for larval stage of Spodoptera litura laboratory strain XW-Sus
[2] = system: Spodoptera litura; assay: Resistance factor, ratio of LC50 for third to fifth-instar larval stage of Spodoptera litura field strain SH10 to LC50 for larval stage of Spodoptera litura laboratory strain XW-Sus
[3] = system: Spodoptera litura; assay: Insecticidal activity against third to fifth-instar larval stage of Spodoptera litura field strain HF08 assessed as mortality after 72 hr by diet incorporation bioassay
[4] = system: Spodoptera litura; assay: Resistance factor, ratio of LC50 for third to fifth-instar larval stage of Spodoptera litura field strain HF08 to LC50 for larval stage of Spodoptera litura laboratory strain XW-Sus
[5] = system: Spodoptera litura; assay: Resistance factor, ratio of LC50 for second to fifth-instar larval stage of Spodoptera litura field strain HZ10 to LC50 for larval stage of Spodoptera litura laboratory strain XW-Sus
[6] = system: Spodoptera litura; assay: Insecticidal activity against third to fifth-instar larval stage of Spodoptera litura field strain HF10 assessed as mortality after 72 hr by diet incorporation bioassay
[7] = system: Spodoptera litura; assay: Insecticidal activity against second to fifth-instar larval stage of Spodoptera litura field strain HZ10 assessed as mortality after 72 hr by diet incorporation bioassay
[8] = system: Spodoptera litura; assay: Insecticidal activity against third to fifth-instar larval stage of Spodoptera litura field strain HX09 assessed as mortality after 72 hr by diet incorporation bioassay
[9] = system: Spodoptera litura; assay: Insecticidal activity against third to fifth-instar larval stage of Spodoptera litura field strain HH09 assessed as mortality after 72 hr by diet incorporation bioassay
[10] = system: Spodoptera litura; assay: Insecticidal activity against second to fifth-instar larval stage of Spodoptera litura field strain DG10 assessed as mortality after 72 hr by diet incorporation bioassay
[11] = system: Spodoptera litura; assay: Insecticidal activity against second to fifth-instar larval stage of Spodoptera litura field strain ZZ10 assessed as mortality after 72 hr by diet incorporation bioassay
[12] = system: Spodoptera litura; assay: Insecticidal activity against third to fifth-instar larval stage of Spodoptera litura field strain NJ09 assessed as mortality after 72 hr by diet incorporation bioassay
[13] = system: Spodoptera litura; assay: Resistance factor, ratio of LC50 for third to fifth-instar larval stage of Spodoptera litura field strain HH09 to LC50 for larval stage of Spodoptera litura laboratory strain XW-Sus
[14] = system: Spodoptera litura; assay: Resistance factor, ratio of LC50 for third to fifth-instar larval stage of Spodoptera litura field strain NJ10 to LC50 for larval stage of Spodoptera litura laboratory strain XW-Sus
[15] = system: Spodoptera litura; assay: Insecticidal activity against second to fifth-instar larval stage of Spodoptera litura field strain SZ10 assessed as mortality after 72 hr by diet incorporation bioassay
[16] = system: Spodoptera litura; assay: Insecticidal activity against third to fifth-instar larval stage of Spodoptera litura field strain NN10 assessed as mortality after 72 hr by diet incorporation bioassay
[17] = system: Spodoptera litura; assay: Resistance factor, ratio of LC50 for third to fifth-instar larval stage of Spodoptera litura field strain HX09 to LC50 for larval stage of Spodoptera litura laboratory strain XW-Sus
[18] = system: Spodoptera litura; assay: Resistance factor, ratio of LC50 for third to fifth-instar larval stage of Spodoptera litura field strain HF10 to LC50 for larval stage of Spodoptera litura laboratory strain XW-Sus
[19] = system: Spodoptera litura; assay: Resistance factor, ratio of LC50 for second to fifth-instar larval stage of Spodoptera litura field strain ZZ10 to LC50 for larval stage of Spodoptera litura laboratory strain XW-Sus
[20] = system: Spodoptera litura; assay: Insecticidal activity against third to fifth-instar larval stage of Spodoptera litura field strain NJ10 assessed as mortality after 72 hr by diet incorporation bioassay
[21] = system: Spodoptera litura; assay: Insecticidal activity against larval stage of Spodoptera litura laboratory strain XW-Sus assessed as mortality after 72 hr by diet incorporation bioassay
[22] = system: Spodoptera litura; assay: Resistance factor, ratio of LC50 for second to fifth-instar larval stage of Spodoptera litura field strain SZ10 to LC50 for larval stage of Spodoptera litura laboratory strain XW-Sus
[23] = system: Spodoptera litura; assay: Resistance factor, ratio of LC50 for third to fifth-instar larval stage of Spodoptera litura field strain NN10 to LC50 for larval stage of Spodoptera litura laboratory strain XW-Sus
[24] = system: Spodoptera litura; assay: Resistance factor, ratio of LC50 for second to fifth-instar larval stage of Spodoptera litura field strain DG10 to LC50 for larval stage of Spodoptera litura laboratory strain XW-Sus
[25] = system: Spodoptera litura; assay: Insecticidal activity against third to fifth-instar larval stage of Spodoptera litura field strain SH10 assessed as mortality after 72 hr by diet incorporation bioassay

Work on `CNC(=O)c1cc(Cl)cc(C)c1NC(=O)c1cc(Br)nn1-c1ncccc1Cl` [CHLORANTRANILIPROLE] yielded a RatioLC50 [1] of 6.8, a RatioLC50 [2] of 11.2 and an LC50 [3] of 71.58 ugAi/L. It also gave an LC90 [3] of 386.57 ugAi/L, a RatioLC50 [4] of 16.9 and a RatioLC50 [5] of 19.2. For the same molecule, the LC50 [6] was 75.51 ugAi/L, the LC90 [6] was 262.61 ugAi/L and the LC50 [7] was 80.41 ugAi/L. For the same molecule, the LC90 [7] was 296.76 ugAi/L, the LC50 [8] was 100.3 ugAi/L and the LC90 [8] was 431.76 ugAi/L. The LC50 [9] was 39.54 ugAi/L, the LC90 [9] was 132.55 ugAi/L and the LC50 [10] was 98.81 ugAi/L. It also gave an LC90 [10] of 358.16 ugAi/L, an LC50 [11] of 78.89 ugAi/L and an LC90 [11] of 269.74 ugAi/L. The LC50 [12] was 28.41 ugAi/L, the LC90 [12] was 108.24 ugAi/L and the RatioLC50 [13] was 9.4. It also gave a RatioLC50 [14] of 9, an LC50 [15] of 102.48 ugAi/L and an LC90 [15] of 354.52 ugAi/L. For the same molecule, the LC50 [16] was 32.85 ugAi/L, the LC90 [16] was 81.75 ugAi/L and the RatioLC50 [17] was 23.8. It also gave a RatioLC50 [18] of 17.9, a RatioLC50 [19] of 18.9 and an LC50 [20] of 37.78 ugAi/L. The LC90 [20] was 156.29 ugAi/L, the LC50 [21] was 4.2 ugAi/L and the LC90 [21] was 17.82 ugAi/L. It also gave a RatioLC50 [22] of 24.4, a RatioLC50 [23] of 7.8 and a RatioLC50 [24] of 23.3. The LC50 [25] was 47.17 ugAi/L and the LC90 [25] was 133.09 ugAi/L.
